Test system: H23 cells
Experiment: CRISPR/Cas9 synthetic lethal screen with TNO155 alone
Assay type: cell-based, human

## C[C@@H]1OCC2(CCN(c3cnc(Sc4ccnc(N)c4Cl)c(N)n3)CC2)[C@@H]1N [TNO155]
Knockout gene AP2M1
  neg|lfc: −1.5896
Knockout gene ATP6V0C
  neg|lfc: −2.4937
Knockout gene ATP6V1F
  neg|lfc: −1.3822
Knockout gene ATP6V1H
  neg|lfc: −1.2922
Knockout gene BUB1
  neg|lfc: −1.3761
Knockout gene C7orf26
  neg|lfc: −1.2403
Knockout gene C12orf45
  neg|lfc: −0.8919
Knockout gene C18orf21
  neg|lfc: −1.7774
Knockout gene CAPZA1
  neg|lfc: −0.8323
Knockout gene CARD10
  neg|lfc: −0.8745
Knockout gene CD3EAP
  neg|lfc: −0.9138
Knockout gene CENPM
  neg|lfc: −2.7542
Knockout gene CFDP1
  neg|lfc: −1.4115
Knockout gene COQ6
  neg|lfc: −0.9015
Knockout gene COX6B1
  neg|lfc: −1.1999
Knockout gene CS
  neg|lfc: −0.9482
Knockout gene DCST2
  neg|lfc: −1.3843
Knockout gene DDX52
  neg|lfc: −1.2486
Knockout gene DENR
  neg|lfc: −1.046
Knockout gene DHPS
  neg|lfc: −1.8131
Knockout gene DPM3
  neg|lfc: −0.9381
Knockout gene EGLN1
  neg|lfc: −1.2972
Knockout gene ELP2
  neg|lfc: −0.9643
Knockout gene EXOSC2
  neg|lfc: −2.2014
Knockout gene FASTKD5
  neg|lfc: −1.4304
Knockout gene FBL
  neg|lfc: −2.1994
Knockout gene FXN
  neg|lfc: −2.3715
Knockout gene G6PD
  neg|lfc: −2.0605
Knockout gene GATA5
  neg|lfc: −0.7392
Knockout gene GMPS
  neg|lfc: −1.5348
Knockout gene GNB2L1
  neg|lfc: −1.4387
Knockout gene GTF2H3
  neg|lfc: −0.8448
Knockout gene GTF3C1
  neg|lfc: −1.8687
Knockout gene HARS2
  neg|lfc: −1.9989
Knockout gene HIRA
  neg|lfc: −1.0969
Knockout gene HSPA13
  neg|lfc: −1.2857
Knockout gene IPO9
  neg|lfc: −1.5514
Knockout gene KIAA1324
  neg|lfc: −0.9092
Knockout gene KREMEN2
  neg|lfc: −1.0026
Knockout gene LARS
  neg|lfc: −2.0903
Knockout gene LEMD2
  neg|lfc: −1.7855
Knockout gene LIAS
  neg|lfc: −1.7787
Knockout gene LRPPRC
  neg|lfc: −1.3022
Knockout gene MCAT
  neg|lfc: −1.6999
Knockout gene MMGT1
  neg|lfc: −1.1768
Knockout gene MPHOSPH10
  neg|lfc: −1.2081
Knockout gene MRPL2
  neg|lfc: −1.5188
Knockout gene MRPS11
  neg|lfc: −2.1012
Knockout gene MRPS14
  neg|lfc: −2.7074
Knockout gene MTERFD1
  neg|lfc: −0.8478
Knockout gene MTFMT
  neg|lfc: −1.4999
Knockout gene MVD
  neg|lfc: −2.2878
Knockout gene NDUFAF4
  neg|lfc: −2.8677
Knockout gene NDUFS2
  neg|lfc: −1.6602
Knockout gene NGDN
  neg|lfc: −1.6157
Knockout gene NHP2
  neg|lfc: −2.4304
Knockout gene NUP50
  neg|lfc: −1.7194
Knockout gene OXA1L
  neg|lfc: −1.0359
Knockout gene PAXIP1
  neg|lfc: −1.2046
Knockout gene PELO
  neg|lfc: −1.8232
Knockout gene PFDN2
  neg|lfc: −1.6271
Knockout gene PHB
  neg|lfc: −0.6638
Knockout gene PHF6
  neg|lfc: −0.9513
Knockout gene PIGM
  neg|lfc: −0.9761
Knockout gene PIK3C3
  neg|lfc: −1.3101
Knockout gene PKN2
  neg|lfc: −1.323
Knockout gene PLEC
  neg|lfc: −0.9261
Knockout gene POLR3C
  neg|lfc: −2.1096
Knockout gene PRMT1
  neg|lfc: −2.4486
Knockout gene PTCD3
  neg|lfc: −1.5106
Knockout gene RABGGTA
  neg|lfc: −1.5175
Knockout gene RBFA
  neg|lfc: −1.2488
Knockout gene RBM15
  neg|lfc: −0.9128
Knockout gene RMND1
  neg|lfc: −2.1857
Knockout gene RNGTT
  neg|lfc: −1.4545
Knockout gene RNMTL1
  neg|lfc: −1.8816
Knockout gene RPF2
  neg|lfc: −1.6299
Knockout gene RPS2
  neg|lfc: −1.4859
Knockout gene RRP36
  neg|lfc: −1.7306
Knockout gene RSBN1
  neg|lfc: −1.1801
Knockout gene SDHB
  neg|lfc: −1.352
Knockout gene SDHC
  neg|lfc: −1.0873
Knockout gene SLC30A9
  neg|lfc: −0.8169
Knockout gene SMNDC1
  neg|lfc: −1.605
Knockout gene SNRPA
  neg|lfc: −0.853
Knockout gene SORT1
  neg|lfc: −0.7919
Knockout gene SS18L2
  neg|lfc: −1.8054
Knockout gene SYS1
  neg|lfc: −1.4135
Knockout gene TAF2
  neg|lfc: −1.6548
Knockout gene TAMM41
  neg|lfc: −1.389
Knockout gene TEX10
  neg|lfc: −1.2531
Knockout gene TFRC
  neg|lfc: −0.7641
Knockout gene TRAPPC3
  neg|lfc: −1.2908
Knockout gene TRAPPC11
  neg|lfc: −1.3146
Knockout gene TRMT6
  neg|lfc: −1.3112
Knockout gene TSC2
  neg|lfc: −1.2936
Knockout gene VMP1
  neg|lfc: −2.2825
Knockout gene XRCC3
  neg|lfc: −1.7596
Knockout gene YARS
  neg|lfc: −2.5691
Knockout gene YKT6
  neg|lfc: −1.2993

Reference: patent US20250082648A1, “COMPOSITIONS AND METHODS FOR ENHANCING KRAS INHIBITOR OR SHP2 INHIBITOR EFFICACY” (New York University, priority 2023, published 2025)
